Measurements taken from US20230047788A1, “COMPOSITIONS COMPRISING 5-CHOLESTEN-3, 25-DIOL, 3-SULFATE (25HC3S) OR PHARMACEUTICALLY ACCEPTABLE SALT THEREOF AND AT LEAST ONE CYCLIC OLIGOSACCHARIDE” (Virginia Commonwealth University, priority 2016, published 2023).

Assay: Effect of phosphate and borate buffers on chemical stability (% remaining, impurity profile), osmolality, pH and appearance of 25HC3S 30 mg/mL in 250 mg/mL HPBCD at 80°C and 60°C
Format: physicochemical
Description: A total of six 25HC3S formulations at 30 mg/mL in 250 mg/mL of 2-hydroxypropyl beta cyclodextrin (HPBCD) containing 10, 20, 50 and 100 mM phosphate buffers at pH 7.5 to 8.1 and 10 and 50 mM borate buffers at pH 9.4 were prepared for the stability study. The chemical stability (measured as % remaining of 25HC3S) and physical stability (osmolality, pH and appearance) of the formulations were monitored under accelerated conditions for up to 7 days at 80° C. and up to 29 days at 60° C.
Two stock solutions of phosphate buffer at 100 and 200 mM at pH 7.4 and 7.3, respectively and one borate buffer at 100 mM at pH 9.3 were prepared (Tables 22A and 22B) and used for 250 mg/mL HPBCD vehicles preparation (Table 23).
Approximately 1200 mg each of 25HC3S was weighed into 40 mL volumetric flasks and diluted to volume with the six HPBCD vehicles containing 10-100 mM phosphate buffers or 10 and 50 mM borate buffers, respectively (Table 24). The final concentration of 25HC3S was 30 mg/mL (wt/volume, without adjusting for API purity). Aliquots of 2 mL of each formulation were filled into 2 mL glass vials, stoppered and sealed for stability sample set-up at 60° C. and 80° C. to study the effect of phosphate buffer (pH 7.5-8.1) and borate buffer (pH 9.4) at various buffer concentrations on the stability of the HPBCD formulations (Table 26).
A 0.5 mL of sample solution was transferred to a 25 mL volumetric flask and QS'ed with methanol/water=95/5 for 25HC3S concentration determination by HPLC. The % remaining of 25HC3S was calculated as follows: […]

[1] = 250 mg/mL HPBCD, 50 mM borate, 80°C, day 0
[2] = 250 mg/mL HPBCD, 50 mM borate, 80°C, day 1
[3] = 250 mg/mL HPBCD, 50 mM borate, 80°C, day 2
[4] = 250 mg/mL HPBCD, 50 mM borate, 80°C, day 3
[5] = 250 mg/mL HPBCD, 50 mM borate, 80°C, day 7
[6] = 250 mg/mL HPBCD, 50 mM borate, day 0
[7] = 250 mg/mL HPBCD, 50 mM phosphate, 80°C, day 0
[8] = 250 mg/mL HPBCD, 50 mM phosphate, 80°C, day 1
[9] = 250 mg/mL HPBCD, 50 mM phosphate, 80°C, day 2
[10] = 250 mg/mL HPBCD, 50 mM phosphate, 80°C, day 3
[11] = 250 mg/mL HPBCD, 50 mM phosphate, 80°C, day 7
[12] = 250 mg/mL HPBCD, 50 mM phosphate, day 0
[13] = 250 mg/mL HPBCD, 100 mM phosphate, 80°C, day 0
[14] = 250 mg/mL HPBCD, 100 mM phosphate, 80°C, day 1
[15] = 250 mg/mL HPBCD, 100 mM phosphate, 80°C, day 2
[16] = 250 mg/mL HPBCD, 100 mM phosphate, 80°C, day 3
[17] = 250 mg/mL HPBCD, 100 mM phosphate, 80°C, day 7
[18] = 250 mg/mL HPBCD, 100 mM phosphate, day 0

Molecule `C[C@H](CCCC(C)(C)O)[C@H]1CC[C@H]2[C@@H]3CC=C4C[C@@H](OS(=O)(=O)[O-])CC[C@]4(C)[C@H]3CC[C@]12C.[Na+]` [25HC3S, 5-cholesten-3, 25-diol, 3-sulfate] has a pH (250 mg/mL HPBCD, 20 mM phosphate, day 0) of 7.81, a pH (250 mg/mL HPBCD, 50 mM borate, 60°C, 29 days) of 9.19 and a 25HC3S concentration [1] of 28.50 mg/mL. For the same molecule, the “% Remaining of 25HC3S” value [1] was 100.0%, the 25HC3S concentration [2] was 26.78 mg/mL and the “% Remaining of 25HC3S” value [2] was 94.0%. It also gave an Osmolality [2] of 527 mmol/kg, a pH [2] of 9.34 and a 25HC3S concentration [3] of 25.45 mg/mL. The “% Remaining of 25HC3S” value [3] was 89.3%, the Osmolality [3] was 534 mmol/kg and the pH [3] was 9.28. The 25HC3S concentration [4] was 24.05 mg/mL, the “% Remaining of 25HC3S” value [4] was 84.4% and the Osmolality [4] was 535 mmol/kg. For the same molecule, the pH [4] was 9.12, the 25HC3S concentration [5] was 20.20 mg/mL and the “% Remaining of 25HC3S” value [5] was 70.9%. The Appearance [5] was “brown clear solutions”, the Osmolality [5] was 569 mmol/kg and the pH [5] was 8.92. It also gave an Osmolality [6] of 524 mmol/kg, a pH [6] of 9.40 and a pH (250 mg/mL HPBCD, 50 mM phosphate, 60°C, 29 days) of 7.28. The 25HC3S concentration [7] was 28.50 mg/mL, the “% Remaining of 25HC3S” value [7] was 100.0% and the 25HC3S concentration [8] was 27.13 mg/mL. For the same molecule, the “% Remaining of 25HC3S” value [8] was 95.2%, the Osmolality [8] was 427 mmol/kg and the pH [8] was 7.42. The 25HC3S concentration [9] was 25.83 mg/mL, the “% Remaining of 25HC3S” value [9] was 90.6% and the Osmolality [9] was 432 mmol/kg. The pH [9] was 7.29, the 25HC3S concentration [10] was 24.65 mg/mL and the “% Remaining of 25HC3S” value [10] was 86.5%. For the same molecule, the Osmolality [10] was 423 mmol/kg, the pH [10] was 7.08 and the 25HC3S concentration [11] was 20.75 mg/mL. The “% Remaining of 25HC3S” value [11] was 72.8%, the Osmolality [11] was 453 mmol/kg and the pH [11] was 6.73. It also gave an Osmolality [12] of 415 mmol/kg, a pH [12] of 7.63 and a pH (250 mg/mL HPBCD, 100 mM phosphate, 60°C, 29 days) of 7.28. The 25HC3S concentration [13] was 28.58 mg/mL, the “% Remaining of 25HC3S” value [13] was 100.0% and the 25HC3S concentration [14] was 27.10 mg/mL. For the same molecule, the “% Remaining of 25HC3S” value [14] was 94.8%, the Osmolality [14] was 589 mmol/kg and the pH [14] was 7.42. For the same molecule, the 25HC3S concentration [15] was 25.83 mg/mL, the “% Remaining of 25HC3S” value [15] was 90.4% and the Osmolality [15] was 585 mmol/kg. The pH [15] was 7.33, the 25HC3S concentration [16] was 24.65 mg/mL and the “% Remaining of 25HC3S” value [16] was 86.2%. It also gave an Osmolality [16] of 589 mmol/kg, a pH [16] of 7.15 and a 25HC3S concentration [17] of 21.05 mg/mL. The “% Remaining of 25HC3S” value [17] was 73.7%, the Appearance [17] was “brown clear solution” and the Osmolality [17] was 616 mmol/kg. It also gave a pH [17] of 6.93, an Osmolality [18] of 573 mmol/kg and a pH [18] of 7.53. For the same molecule, the Appearance (250 mg/mL HPBCD, 10, 20 and 50 mM phosphate, 80°C, up to 7 days) was “colorless clear solutions”, the “appearance when removed from 80°C oven and cooled to room temperature” value (10 or 50 mM borate formulations, 80°C up to 7 days) was “a white precipitate was observed” and the “25HC3S” value (60° C., day 0, Borate 10 mM) was 28.58 mg/mL. For the same molecule, the “% Peak Area 25-Hydroxy Cholesterol at RRT = 3.67” value (60° C., day 0, Borate 10 mM) was 0.0 % Peak Area, the “% Peak Area 25HC3S” value (60° C., day 0, Borate 10 mM) was 99.7 % Peak Area and the “% Peak Area Major Thermal Degradant at RRT = 2.64” value (60° C., day 0, Borate 10 mM) was 0.3 % Peak Area. For the same molecule, the “% Remaining of 25HC3S” value (60° C., day 0, Borate 10 mM) was 100.0%, the Osmolality (60° C., day 0, Borate 10 mM) was 316 mmol/kg and the pH (60° C., day 0, Borate 10 mM) was 9.36. The “25HC3S” value (60° C., day 0, Borate 50 mM) was 28.50 mg/mL, the “% Peak Area 25-Hydroxy Cholesterol at RRT = 3.67” value (60° C., day 0, Borate 50 mM) was 0.0 % Peak Area and the “% Peak Area 25HC3S” value (60° C., day 0, Borate 50 mM) was 99.9 % Peak Area. For the same molecule, the “% Peak Area Major Thermal Degradant at RRT = 2.64” value (60° C., day 0, Borate 50 mM) was 0.2 % Peak Area, the “% Remaining of 25HC3S” value (60° C., day 0, Borate 50 mM) was 100.0% and the Osmolality (60° C., day 0, Borate 50 mM) was 524 mmol/kg.
